Measurements from article PMC5404542, “In Vitro and In Vivo Antifungal Profile of a Novel and Long-Acting Inhaled Azole, PC945, on Aspergillus fumigatus Infection” (Antimicrobial Agents and Chemotherapy, 2017).
Converted amounts (≈) assume the structure as drawn.

Tests used:
[1] = test system: AR Candida albicans (20183.073, 20186.025); experiment: MIC, CLSI; format: cell-based; conditions: read-out: MIC (the MIC given is the MIC50)
[2] = test system: Aspergillus flavus (AFL8, NRRC3357); experiment: MIC, EUCAST; format: cell-based; conditions: 2 strains, EUCAST, mean isolate MIC, read-out: MIC
[3] = test system: Cryptococcus neoformans (ATCC 24067); experiment: MIC, CLSI; format: cell-based; conditions: for MIC: Cryptococcus neoformans, ATCC24067, 1 strain, CLSI, read-out: MIC
[4] = test system: Gibberella zeae (Fusarium graminearum) (ATCC 16106); experiment: microbe, parasite or virus in culture; format: cell-based; conditions: ATCC16106
AfCYP51A [5] = target: T1, AfCYP51A (Aspergillus fumigatus, UniProt Q4WNT5); experiment: CYP51 reconstitution assay (sterol 14α-demethylase activity); format: biochemical; design: made in house; host or cells: Escherichia coli (membrane fraction)
T1 sequence (Q4WNT5 whole entry): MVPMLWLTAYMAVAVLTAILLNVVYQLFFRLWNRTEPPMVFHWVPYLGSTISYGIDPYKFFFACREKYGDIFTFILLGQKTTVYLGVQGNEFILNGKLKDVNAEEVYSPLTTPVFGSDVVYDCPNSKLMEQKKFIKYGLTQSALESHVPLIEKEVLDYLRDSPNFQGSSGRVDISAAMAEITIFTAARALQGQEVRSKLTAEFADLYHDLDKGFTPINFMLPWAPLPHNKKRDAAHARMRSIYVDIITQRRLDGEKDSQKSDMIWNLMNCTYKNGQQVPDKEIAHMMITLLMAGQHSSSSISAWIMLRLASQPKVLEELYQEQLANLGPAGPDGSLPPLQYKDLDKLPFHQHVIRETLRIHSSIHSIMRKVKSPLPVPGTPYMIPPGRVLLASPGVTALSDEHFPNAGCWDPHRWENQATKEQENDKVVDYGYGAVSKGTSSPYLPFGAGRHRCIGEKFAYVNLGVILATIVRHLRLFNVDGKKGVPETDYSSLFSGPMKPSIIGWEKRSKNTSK
Protocol: (§1) A CYP51 reconstitution assay system was used to determine 50% inhibitory concentrations (IC50s) ([37]). Test agent was added to a mixture of 0.5 μM CYP51, 1 μM A. fumigatus cytochrome P450 reductase isoenzyme 1 (AfCPR1), 50 μM eburicol, 4% (wt/vol) 2-hydroxypropyl-β-cyclodextrin, 0.4 mg ml^−1 isocitrate dehydrogenase, 25 mM trisodium isocitrate, 50 mM NaCl, 5 mM MgCl2, and 40 mM 3-(N-morpholino) propanesulfonic acid (MOPS) (pH ∼7.2). The mixtures were then incubated at 37°C for 10 min prior to initiation with 4 mM β-NADPHNa4 followed by shaking for 20 min at 37°C. Sterol metabolites were recovered by extraction with ethyl acetate followed by derivatization with 0.1 ml N,O-bis(trimethylsilyl)trifluoroacetamide:trimethylchlorosilane (99:1) and 0.3 ml anhydrous pyridine prior to analysis by gas chromatography-mass spectrometry.

[6] = test system: Aspergillus terreus (AT49, AT7130); experiment: MIC, EUCAST; format: cell-based; conditions: 2 strains, EUCAST, mean isolate MIC, read-out: MIC
A. fumigatus = A. fumigatus sterol analysis by GC-MS; format: cell-based, Aspergillus fumigatus; conditions: 2 h
Protocol: A working suspension of A. fumigatus spores was prepared in filter-sterilized MOPS-RPMI 1640 (RPMI 1640 medium containing 2 mM L-glutamine, 2% glucose, and 0.165 M MOPS, buffered to pH 7 with NaOH) to a final concentration of 8 × 10^6 spores ml^-1. […] Samples for baseline determinations were collected by scraping, pelleted by centrifugation at 2,000 rpm for 5 min, and stored at -80°C. Test compounds or DMSO (50 μl) was added to the remaining dishes, which were subsequently gently rocked by hand to disperse the compounds. […] Samples were collected and processed as described above. […] These samples were prepared in the laboratory at Pulmocide Ltd. and sent to the laboratory at the Centre for Cytochrome P450 Biodiversity, Institute of Life Science, […] University Medical School, for experimentation. Nonsaponifiable lipids were extracted as previously reported ([29]) and were derivatized with 0.1 ml N,O-bis(trimethylsilyl)trifluoroacetamide:trimethylchlorosilane (99:1) and 0.3 ml anhydrous pyridine (2 h at 80°C) prior to analysis by gas chromatography-mass spectrometry ([38]). Sterol composition was calculated using peak areas from the gas chromatograms, and the mass fragmentation patterns compared to known standards were used to confirm sterol identity. The sterol contents of A. fumigatus (basal) and treated A. fumigatus (treated with either DMSO, posaconazole, or PC945) were determined.

[7] = test system: Aureobasidium pullulans (ATCC 9348); experiment: MIC, CLSI; format: cell-based; conditions: ATCC9348, 1 strain
[8] = test system: Candida glabrata (ATCC 36583, R363); experiment: MIC, CLSI; format: cell-based; conditions: Nakaseomyces glabratus, ATCC36583; 2 strains, CLSI, mean isolate MIC; read-out: MIC (the MIC given is the MIC50)
AfCYP51A [9] = target: T1, AfCYP51A; experiment: A. fumigatus CYP51 binding assay (ligand titration, type II difference spectra); design: made in house
Protocol: A. fumigatus CYP51 binding properties were determined as described by Warrilow et al. ([35]). Test agents were titrated against 4 μM recombinant A. fumigatus CYP51A or CYP51B protein, and binding saturation curves were constructed from the change in the absorbance between the spectral peak and the trough. A rearrangement of the Morrison equation was used to determine the dissociation constant (Kd) values when ligand binding was tight ([36]).

[10] = test system: Cladosporium argillaceum (ATCC 38013); experiment: MIC, CLSI; format: cell-based; conditions: Rhizocladosporium argillaceum, ATCC38013, 1 strain
[11] = test system: Lichtheimia corymbifera (ATCC 7909); experiment: MIC, CLSI; format: cell-based; conditions: ATCC7909, 1 strain
AfCYP51B = target: T2, AfCYP51B (Aspergillus fumigatus, UniProt E9QY26); experiment: CYP51 reconstitution assay (sterol 14α-demethylase activity); format: biochemical; conditions: for IC50: 0.5 μM AfCYP51B from membrane fraction of E. coli expression clones; for Ki: suggested from tight-binding inhibition, read-out: Ki.app, CYP51B
T2 construct: made in house; host or cells: Escherichia coli (membrane fraction)
T2 sequence (E9QY26 1-524): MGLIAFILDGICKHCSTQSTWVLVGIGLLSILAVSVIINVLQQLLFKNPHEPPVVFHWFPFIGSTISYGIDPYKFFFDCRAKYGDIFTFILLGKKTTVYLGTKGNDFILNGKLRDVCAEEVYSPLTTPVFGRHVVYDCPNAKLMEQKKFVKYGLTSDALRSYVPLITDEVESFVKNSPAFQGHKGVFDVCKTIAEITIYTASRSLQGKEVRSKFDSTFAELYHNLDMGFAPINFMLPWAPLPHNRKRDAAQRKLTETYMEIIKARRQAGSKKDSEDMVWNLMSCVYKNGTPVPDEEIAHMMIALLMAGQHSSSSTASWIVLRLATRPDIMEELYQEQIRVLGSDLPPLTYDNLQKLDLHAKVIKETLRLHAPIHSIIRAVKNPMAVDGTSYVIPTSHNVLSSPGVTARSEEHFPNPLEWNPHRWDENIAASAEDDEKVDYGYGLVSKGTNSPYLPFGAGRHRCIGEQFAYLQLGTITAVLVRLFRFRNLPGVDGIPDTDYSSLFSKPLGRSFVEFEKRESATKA
Protocol: as §1

CC[C@@H]([C@H](C)O)n1ncn(-c2ccc(N3CCN(c4ccc(OC[C@@H]5CO[C@@](Cn6cncn6)(c6ccc(F)cc6F)C5)cc4)CC3)cc2)c1=O [Posaconazole, posaconazole]
MIC50 [1]: 8.13 µg/mL (≈ 11.6 µM) | MIC [2]: 0.16 µg/mL (≈ 0.228 µM) | MIC [3]: 0.016 µg/mL (≈ 0.0228 µM) | MIC [4]: > 8 µg/mL | IC50 (AfCYP51A [5]): 160 nM | Ki (AfCYP51A [5]): < 1 nM | MIC [6]: 0.093 µg/mL (≈ 0.133 µM) | Sterol content in cells, Eburicol (A. fumigatus; 0.0001 μg/ml): 2.2% | Sterol content in cells, Ergost-5,7-dienol (A. fumigatus; 0.0001 μg/ml): 3.3% | Sterol content in cells, Ergosterol (A. fumigatus; 0.0001 μg/ml): 94.5% | Sterol content in cells, Lanosterol (A. fumigatus; 0.0001 μg/ml): 0% | Sterol content in cells, Eburicol (A. fumigatus; 0.001 μg/ml): 5.9% | Sterol content in cells, Ergost-5,7-dienol (A. fumigatus; 0.001 μg/ml): 3.9% | Sterol content in cells, Ergosterol (A. fumigatus; 0.001 μg/ml): 87.2% | Sterol content in cells, Lanosterol (A. fumigatus; 0.001 μg/ml): 3.0% | Sterol content in cells, Eburicol (A. fumigatus; 0.01 μg/ml): 18.3% | Sterol content in cells, Ergost-5,7-dienol (A. fumigatus; 0.01 μg/ml): 0% | Sterol content in cells, Ergosterol (A. fumigatus; 0.01 μg/ml): 74.7% | Sterol content in cells, Lanosterol (A. fumigatus; 0.01 μg/ml): 7.0% | Sterol content in cells, Eburicol (A. fumigatus; 0.1 μg/ml): 23.4% | Sterol content in cells, Ergost-5,7-dienol (A. fumigatus; 0.1 μg/ml): 0% | Sterol content in cells, Ergosterol (A. fumigatus; 0.1 μg/ml): 67.8% | Sterol content in cells, Lanosterol (A. fumigatus; 0.1 μg/ml): 8.8% | Sterol content in cells, Eburicol (A. fumigatus; 1 μg/ml): 23.8% | Sterol content in cells, Ergost-5,7-dienol (A. fumigatus; 1 μg/ml): 0% | Sterol content in cells, Ergosterol (A. fumigatus; 1 μg/ml): 67.4% | Sterol content in cells, Lanosterol (A. fumigatus; 1 μg/ml): 8.8% | MIC [7]: 1 µg/mL (≈ 1.43 µM) | MIC50 [8]: 0.5 µg/mL (≈ 0.713 µM) | Kd (AfCYP51A [9]): 960 nM | MIC [10]: 0.25 µg/mL (≈ 0.357 µM) | MIC [11]: > 8 µg/mL | IC50 (AfCYP51B): 170 nM | Ki (AfCYP51B): < 1 nM

Cc1cc(N2CCN(c3ccc(C(=O)Nc4ccc(F)cc4)cc3)CC2)ccc1OC[C@@H]1CO[C@@](Cn2cncn2)(c2ccc(F)cc2F)C1 [PC945, 4-[4-(4-{[(3R,5R)-5-(2,4-difluorophenyl)-5-(1H-1,2,4-triazol-1-ylmethyl)oxolan-3-yl]methoxy}-3-methylphenyl)piperazin-1-yl]-N-(4-fluorophenyl)benzamide]
MIC50 [1]: 8.25 µg/mL (≈ 12.1 µM) | MIC [2]: 6 µg/mL (≈ 8.79 µM) | fold more potent than both voriconazole and posaconazole ([3]; C. neoformans): 2 fold | MIC [3]: 0.008 µg/mL (≈ 0.0117 µM) | MIC [4]: > 8 µg/mL | IC50 (AfCYP51A [5]): 230 nM | Ki (AfCYP51A [5]): < 1 nM | MIC [6]: 0.078 µg/mL (≈ 0.114 µM) | Sterol content in cells, Eburicol (A. fumigatus; 0.0001 μg/ml): 0% | Sterol content in cells, Ergost-5,7-dienol (A. fumigatus; 0.0001 μg/ml): 4.1% | Sterol content in cells, Ergosterol (A. fumigatus; 0.0001 μg/ml): 95.9% | Sterol content in cells, Lanosterol (A. fumigatus; 0.0001 μg/ml): 0% | Sterol content in cells, Eburicol (A. fumigatus; 0.001 μg/ml): 2.7% | Sterol content in cells, Ergost-5,7-dienol (A. fumigatus; 0.001 μg/ml): 2.5% | Sterol content in cells, Ergosterol (A. fumigatus; 0.001 μg/ml): 94.7% | Sterol content in cells, Lanosterol (A. fumigatus; 0.001 μg/ml): 0% | Sterol content in cells, Eburicol (A. fumigatus; 0.01 μg/ml): 6.5% | Sterol content in cells, Ergost-5,7-dienol (A. fumigatus; 0.01 μg/ml): 3.3% | Sterol content in cells, Ergosterol (A. fumigatus; 0.01 μg/ml): 86.7% | Sterol content in cells, Lanosterol (A. fumigatus; 0.01 μg/ml): 3.6% | Sterol content in cells, Eburicol (A. fumigatus; 0.1 μg/ml): 13.2% | Sterol content in cells, Ergost-5,7-dienol (A. fumigatus; 0.1 μg/ml): 0% | Sterol content in cells, Ergosterol (A. fumigatus; 0.1 μg/ml): 80.6% | Sterol content in cells, Lanosterol (A. fumigatus; 0.1 μg/ml): 6.2% | Sterol content in cells, Eburicol (A. fumigatus; 1 μg/ml): 19.3% | Sterol content in cells, Ergost-5,7-dienol (A. fumigatus; 1 μg/ml): 0% | Sterol content in cells, Ergosterol (A. fumigatus; 1 μg/ml): 71.3% | Sterol content in cells, Lanosterol (A. fumigatus; 1 μg/ml): 9.4% | MIC [7]: > 8 µg/mL | MIC50 [8]: 0.5 µg/mL (≈ 0.732 µM) | Kd (AfCYP51A [9]): 500 nM | difference spectra on titration against purified CYP51A (AfCYP51A [9]): type II difference spectra | MIC [10]: > 8 µg/mL | MIC [11]: > 8 µg/mL | IC50 (AfCYP51B): 220 nM | Ki (AfCYP51B): < 1 nM
